In PubChem BioAssay (NCI):
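GI50 = concentration required for 50% inhibition of growth. TGI is the concentration that stops growth completely.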

Tests used:
Test in all cases: growth of human tumour cells (NCI), 384-well format
CCRF-CEM leukemia = system: CCRF-CEM leukemia
OVCAR-3 ovarian = system: OVCAR-3 ovarian
786-0 renal = system: 786-0 renal
M14 melanoma = system: M14 melanoma
UACC-62 melanoma = system: UACC-62 melanoma
NCI-H23 lung = system: NCI-H23 lung
MDA-MB-468 breast = system: MDA-MB-468 breast
SK-OV-3 ovarian = system: SK-OV-3 ovarian
KM12 colon = system: KM12 colon
HT29 colon = system: HT29 colon
RPMI-8226 leukemia = system: RPMI-8226 leukemia
HCT-15 colon = system: HCT-15 colon
CAKI-1 renal = system: CAKI-1 renal

Structure (SMILES) | GI50 (CCRF-CEM leukemia) [µM] | TGI (CCRF-CEM leukemia) [µM] | GI50 (OVCAR-3 ovarian) [µM] | TGI (OVCAR-3 ovarian) [µM] | GI50 (786-0 renal) [µM] | TGI (786-0 renal) [µM] | GI50 (M14 melanoma) [µM] | TGI (M14 melanoma) [µM] | GI50 (UACC-62 melanoma) [µM] | TGI (UACC-62 melanoma) [µM] | GI50 (NCI-H23 lung) [µM] | TGI (NCI-H23 lung) [µM] | GI50 (MDA-MB-468 breast) [µM] | TGI (MDA-MB-468 breast) [µM] | GI50 (SK-OV-3 ovarian) [µM] | TGI (SK-OV-3 ovarian) [µM] | GI50 (KM12 colon) [µM] | TGI (KM12 colon) [µM] | GI50 (HT29 colon) [µM] | TGI (HT29 colon) [µM] | other results
C=CC(=O)N[C@H]1CCOC[C@H]1Nc1ncc2cc(-c3c(Cl)c(OC)cc(OC)c3Cl)ccc2n1 | 9.81 | 22.2 | 13.9 | 34 | 16.5 | 50.1 | 16.8 | > 69.2 | 10.7 | 25.1 | 16.9 | 63.9 | 3.37 | 13.9 | 19.4 | 63.4 | 19.2 | 47.7 | 14 | 96.2 | GI50 (RPMI-8226 leukemia): 4.12 µM; TGI (RPMI-8226 leukemia): 15 µM; GI50 (HCT-15 colon): 11.4 µM; TGI (HCT-15 colon): 35.5 µM; GI50 (CAKI-1 renal): 12 µM; TGI (CAKI-1 renal): 82.4 µM
c1cn2cc(-c3ccc4cn[nH]c4c3)nc(Nc3ccc(N4CCOCC4)cc3)c2n1 | > 100 | > 100 | 12.7 | 28.3 | 8.76 | 21.1 | 23.5 | 86.6 | 7.97 | 20.9 | 10.8 | 25.7 | 16.1 | 57.1 | 5.35 | 19.3 | 0.527 | 25 | 28.1 | > 100 | GI50 (RPMI-8226 leukemia): 16.9 µM; TGI (RPMI-8226 leukemia): > 58.6 µM; GI50 (HCT-15 colon): 19.4 µM; TGI (HCT-15 colon): > 100 µM; GI50 (CAKI-1 renal): 11.9 µM; TGI (CAKI-1 renal): 25.3 µM
